The values that follow come from PubChem BioAssay AID488870 (Broad Institute, 2010).

Calls of active or inactive are those of the source.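 How the source made its calls: active means a drop in nitrite signal whose fitted half-maximal concentration is at most ten times the top tested dose; inconclusive means flat fit with 30 to 70% inhibition, or poor curve fit; inactive means the rest.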

In the first assay the test system is INS-1E cytokine-induced nitrite, Griess absorbance, 48 h. Nature of the assay: suppression of NO production in INS-1E cells – cell-based, Griess absorbance, dry powder, set 3, dose response (AID 488870).
Settings: not given
A general note: Nitrite, measured by Griess reagent, commonly stands in for NO production.
Consider `Cc1ccc(S(=O)(=O)N(C)C[C@H]2Oc3c(NC(=O)Nc4cccc5ccccc45)cccc3C(=O)N([C@@H](C)CO)C[C@@H]2C)cc1`, for which the AC50 is > 19.5 µM (inactive).
On the same count and under the same terms, to `C[C@@H]1CN([C@H](C)CO)C(=O)c2cccc(NC(=O)Nc3ccccc3)c2O[C@H]1CN(C)S(=O)(=O)c1ccc(F)cc1` belongs > 19.5 µM (inactive).

Tested on in a further assay: not listed separately
Described as above. The settings on record: INS-1E cytokine-induced nitrite, Griess absorbance, 48 h; at 19.5 µM (top of the series).
As for `C[C@@H]1CN([C@@H](C)CO)C(=O)c2cccc(NC(=O)Nc3cccc4ccccc34)c2O[C@H]1CN(C)S(=O)(=O)c1cccs1`, the activity change, negative = inhibition is -14.1% (inactive).
Regarding `C[C@@H]1CN([C@@H](C)CO)C(=O)c2cccc(NC(=O)Nc3cccc4ccccc34)c2O[C@H]1CN(C)S(=O)(=O)c1ccc2c(c1)oc(=O)n2C`, the activity change, negative = inhibition is -7.4% (inactive).
With `C[C@@H]1CN([C@@H](C)CO)C(=O)c2cccc(NC(=O)Nc3cccc4ccccc34)c2O[C@H]1CN(C)S(=O)(=O)c1ccc2c(n1)N(C)CCO2`, the activity change, negative = inhibition is -13.9% (inactive).
The same measure, in the same setting: the figure for `COc1ccc(S(=O)(=O)N(C)C[C@@H]2Oc3c(NC(=O)C4CC4)cccc3C(=O)N([C@@H](C)CO)C[C@H]2C)cc1` is -4.99% (inactive).

The AC50 is the concentration at which the activity in the assay is half-maximal.
